Assay results reported in patent EP0372541A1, “Method for imparting immunosuppression” (priority 1988, dated 1990).

Columns and labels:
[1] = system: mixed lymphocyte response; assay: Mixed lymphocyte response (MLR) assay, tritiated thymidine incorporation; format: cell-based; conditions: Figures 9 and 10; for inhibition of the mixed lymphocyte response in combination with cyclosporine: free acid added to cyclosporine; for inhibition of the mixed lymphocyte response in combination with methylprednisolone: free acid added to methylprednisolone
Description: The mixed lymphocyte response is a clinically useful predictor of the immunosuppressive activity of drugs.The mixed lymphocyte response assay data shown below and in Figures 7-10 were obtained with the following method. A stimulator panel of Epstein-Barr virus (EBV) transformed continuous lymphoblastoid cell lines was employed to magnify responses. There were equal numbers of four cell lines with eight different HLA-DR antigens (two per cell line). Stimulator cells were irradiated (13,000 rad) before suspension in a modified RPMI medium. Responder lymphocytes were prepared from heparinized recipient blood by density gradient separation before suspension in glutamine with antibiotic-supplemented RPMI medium containing 10% autologous serum. Equal numbers of responder and stimulator cells (1x 10⁵ in 0.1 ml) were incubated with 0.05 ml of medium (control) or varying concentrations of the three prostaglandin analogs (misoprostol, enisoprost and misoprostol-free acid) or methylprednisolone or cyclosporine or combinations of these agents.
Following incubation at 37°C and 5% CO₂ for five days, one microcurie of tritiated thymidine was added and cell cultures incubated for six hours. Cells were then harvested. MLR responses for the three different prostaglandin analogs were then compared for several different concentrations (Figure 7). The effects of the prostaglandins were also compared to those of the control ethanol diluent (Figure 8).

[2] = system: cyclosporine-treated renal transplant recipients; assay: Randomized, double-blind, placebo controlled clinical study in renal transplant recipients on cyclosporine; format: in vivo, human; conditions: for Acute Rejection / Creatinine / Creatinine Clearance: 200 µg Q.I.D. with cyclosporine
Description: A randomized, double-blind, placebo controlled study was designed: (1) to determine the safety and efficacy of a PGE₁ prostaglandin in reducing cyclosporine-induced nephrotoxicity in renal transplant recipients; and (2) to examine the effects of the PGE₁ prostaglandin on the incidence rate of clinically important events such as acute transplant rejection.
The PGE, prostaglandin evaluated was misoprostol, ((±) methyl 11α, 16-dihydroxy-16-methyl-9-oxoprost-13E-en-1-oate). Subjects received the PGE₁ prostaglandin in dosages of 200 µg or a placebo four times a day (Q.I.D.) for the first twelve weeks following transplantation. A study population of 77 subjects was evaluated. Efficacy was assessed by a serial comparison of renal function and by measuring the duration and functional severity of transplant rejection, cyclosporine nephrotoxicity, and other episodes of acute renal failure in the PGE₁ prostaglandin and the placebo groups. Serial measurements of serum creatinine and creatinine clearance were used to determine trends and differences in renal function between treatment groups.
The subjects in the clinical study were first stratified into two groups according to the source of the allograft, cadaver or living-related donor. Members of each group were assigned at random in the order of enrollment to receive the PGE₁ prostaglandin or the placebo according to a computer-generated assignment schedule prepared prior to the start of the study. The purpose of this approach was to guarantee adequate randomization of subjects as a function of allograft source and probable post-transplantation function.
The administration of the prostaglandin began with the first dose of cyclosporine. The subjects received the .prostaglandin Q.I.D. given 30-60 minutes p.c. (after a meal) and h.s. (at night). The prostaglandin initially could be administered via a nasogastric tube. Following discharge of the patient from the hospital. the patient began to administer the placebo or prostaglandin and recording the dosing in a diary. The test article dosing remained one tablet Q.I D. continuing the 30-60 minute p.c and h.s. schedule.
Hematology and chemistry profiles were obtained on the first and seventh post-transplantation days and again after four weeks. A chemistry profile was obtained at eight and twelve weeks. A urinalysis was obtained on the first post-operative day and again after four weeks.
Twenty-four hour creatinine clearance measurements were obtained on post-operative days one, three, and seven, then weekly for three weeks and at four week intervals thereafter until the study was terminated.
Serum creatinine measurements were obtained on postoperative days 1, 3 and 7, and then at weeks 4, 8, 12 and 16.
Measurement of trough cyclosporine levels were required on days one, three, five and seven; twice during each of weeks two, three and four; and at least once during weeks eight, twelve and sixteen.
Acute renal failure was defined as the presence of any of the following: • 1) Any change in renal function which prompted the principal investigator to perform a diagnostic maneuver (e.g., measure of serum creatinine concentration or urinary sodium concentration) or therapeutic maneuver (e.g., give intravenous fluids) to investigate or treat the change. • 2) A rise in serum creatinine concentration from a stable base line of at least 0.2 mg/dl/day for two days or 0.3 mg/dl in one day. • 3) A fall in urine output to less than an average of 25 ml per hour for more than 24 hours.
After twelve weeks of treatment and four additional weeks of observation, the subject underwent a physical examination and a complete medical history was reviewed. The following laboratory tests were also obtained: hematology, PT/PTT, chemistry, urinalysis. creatinine clearance, cyclosporine level and serum beta HCG (where appropriate). In addition, any other measurements of creatinine concentration or clearance obtained during the post-treatment period were recorded.

[3] = listed as PGE₁ prostaglandin free acid
[4] = 1 Month after renal transplantation
[5] = 2 Months after renal transplantation
[6] = 3 Months after renal transplantation

Structure (SMILES)	inhibition of the mixed lymphocyte response in combination with cyclosporine [1]	inhibition of the mixed lymphocyte response in combination with cyclosporine [1, 3]	inhibition of the mixed lymphocyte response in combination with methylprednisolone [1]	inhibition of the mixed lymphocyte response in combination with methylprednisolone [1, 3]	Acute Rejection [2, 4]	Creatinine [2, 4]	Creatinine Clearance [2, 4]	Acute Rejection [2, 5]	Creatinine [2, 5]	Creatinine Clearance [2, 5]	Acute Rejection [2, 6]	Creatinine [2, 6]	Creatinine Clearance [2, 6]	renal function ([2]; cyclosporine-treated renal transplant recipients, versus placebo)	acute rejection versus placebo ([2]; during the three months of treatment, p = 0.015)	cyclosporine absorption (cyclosporine dosage and trough blood levels by HPLC) ([2]; human, in vivo)	cyclosporine nephrotoxicity (incidence rate of first episodes) ([2]; versus placebo, Figure 5)
CCCCC(C)(O)CC=CC1C(O)CC(=O)C1CCCCCCC(=O)O (racemic) [misoprostol free acid]	clear evidence of enhancement of immunosuppressive activity	larger than additive effect	clear evidence of enhancement of immunosuppressive activity	larger than additive effect													
CCCCC(C)(O)C/C=C/[C@H]1[C@H](O)CC(=O)[C@@H]1CCCCCCC(=O)OC (mixture of isomers) [PGE₁, (±) methyl 11α, 16-dihydroxy-16-methyl-9-oxoprost-13E-en-1-oate]					3 first episode/mo	1.6 ± 0.2 mg/dL	73 ± 5 ml/min/1.73m2	2 first episode/mo	1.4 ± 0.1 mg/dL	77 ± 6 ml/min/1.73m2	2 first episode/mo	1.4 ± 0.1 mg/dL	81 ± 5 ml/min/1.73m2	improved renal function	significantly reduced	no interference with cyclosporine absorption	no increase in cyclosporine nephrotoxicity
